Results from article PMC6359543, “Efficacy of Azatyrosine-Phenylbutyric Hydroxamides, a Histone Deacetylase Inhibitor, on Chemotherapy-Induced Gastrointestinal Mucositis” (International Journal of Molecular Sciences, 2019).

What was measured:
[1] = system: Salmonella typhimurium TA1537; assay: Salmonella/microsome reversion assay (Ames test), TA1537; format: cell-based
[2] = system: Salmonella typhimurium TA98; assay: Salmonella/microsome reversion assay (Ames test), TA98; format: cell-based; details: Positive Control: 4-Nitro-o-phenylenediamine 2.5 µg / plate
[3] = system: Salmonella typhimurium TA100; format: cell-based
[4] = system: Salmonella typhimurium TA102; details: Positive Control: 2-aminoanthrene 5 µg /plate
Description: Five strains of Salmonella typhimurium, TA98, TA102, TA100, TA1537, and TA1535, were obtained from Moltox (Boone, NC, USA). Mutagenicity was evaluated by the incorporation method in the presence or absence of S9 metabolic activation. A volume of 100 µL of each test bacterial culture (10^9 cells/mL), 2 mL soft agar (0.6% agar, 0.5% NaCl, 5 mM histidine, and […], pH 7.4, 40–50 °C), 0.5 mL S9 mixture (if necessary), and AzP were mixed well in a test tube. […] The revertant colonies were counted, and a positive mutagenic response was identified when (i) the number of revertants was at least double the spontaneous yield; (ii) a statistical significance (p ≤ 0.05) was found; and (iii) a reproducible positive dose response was present.

[5] = system: Salmonella typhimurium TA1535; format: cell-based
C57BL/6 mice = details: mouse, in vivo, ip, 11 mg/kg
[6] = system: Chinese Hamster Ovary cells (CHO-K1); assay: Chromosome aberration assay; format: cell-based; details: Mitomycin C 1µg/mL
Description: Chinese hamster ovary epithelial cells (CHO-K1, American Type Culture Collection, Manassas, VA, USA) were cultured in 6-cm dishes at a density of 2 × 10^5 cells/mL for chromosomal abnormality analysis. […] Colemid (0.1 μg/mL) was administered 3 h before trypsinization, followed by treatment with 0.9% sodium citrate at 37 °C and Carnoy’s solution (methanol:acetic acid, 3:1). The cells were stained with 3% Giemsa solution in 0.07 M phosphate buffer (pH 6.8) on glass slides. […] The data were expressed as the total mean number of chromosomal aberrations per treatment ± standard deviation (SD) from three independent experiments.

male ICR mice = assay: Micronucleus test; details: Cyclophosphamide 200 mg/kg
Description: Male ICR mice (n = 5) were administered AzP orally by gavage, at doses of 5, 50, and 500 mg/kg body weight. […] At 24, 48, and 72 h after dosing, 2-μL blood samples were collected from the tail vein onto a slide stained with acridine orange (40 μg/mL). The ratio (%) of polychromatic erythrocytes (PCEs) to total erythrocytes was determined using fluorescence microscopy. In addition, the frequency of micronucleated polychromatic erythrocytes (MNPCEs; ‰) was counted to a total of 1000 erythrocytes or PCEs per animal.

IEC-6 cells = assay: LPS-induced MAPK/Akt phosphorylation in IEC-6 cells (Western blot); format: cell-based, Rat; details: LPS 500 ng/mL, 10 min
Description: Figure 6 Western blotting of IEC-6 cells treated with LPS and/or AzP. (A) IEC-6 cells (1 × 10^6 cells/mL) were dispensed on 6 cm dishes and (A) treated with LPS (500 ng/mL) for 10, 20, 30, 60, and 90 min. Data expressed as means ± SD from 3 independent experiments. * p < 0.05 as compared with the resting. (B) Treatment with LPS (500 ng/mL) for 10 min as indicated. Cells were treated with the indicated concentrations of AzP (5, 10, and 20 μM) or vehicle for 30 min before treatment with LPS. Cell lysates were collected for Western blot targeting p-ERK phosphorylation (Thr202/Tyr204, B), MEK phosphorylation ([…], C), and Akt phosphorylation (Ser473, D). Data expressed as means ± SD from 3 independent experiments. ### p < 0.001 as compared with the resting, * p < 0.05, ** p < 0.01 and *** p < 0.001 as compared with the vehicle.
IEC-6 cells were incubated in different AzP concentrations with/without LPS stimulation for 24 h. The homogenate from cells or tissues was then centrifuged at 14,000× g for 10 min at 4 °C and the supernatant was collected. Protein separation was performed using 10% reducing SDS-PAGE, electrotransferred onto polyvinylidene difluoride (PVDF), and immunoblotted with antibodies against inflammatory proteins as well as β-actin as control. Densitometry was performed using BioLight software V2000.01 (Uhldingen-Mühlhofen, Germany). The optical density of specific protein was normalized to an internal control and expressed as a ratio to control.

[7] = Positive Control: 2-aminoanthrene 5 µg /plate
[8] = 3 hours without S9 metabolic activation
[9] = 24 hours without S9 metabolic activation
[10] = Positive Control: Sodium Azide 5 µg / plate

Nc1c2ccccc2nc2ccccc12 [9-Aminoacridine, reference compound]
Revertant colonies per plate (-S9) TA1537 ([1]; Positive Control: 9-Aminoacridine 50 µg /plate): 1671.8±184

Nc1ccc([N+](=O)[O-])cc1N [4-Nitro-o-phenylenediamine, reference compound]
Revertant colonies per plate (-S9) TA98 [2]: 1549.3±37.6

Nc1ccc2cc3ccccc3cc2c1 [2-aminoanthrene, reference compound]
Revertant colonies per plate (+S9) TA100 [3, 7]: 1514.7±6.9
Revertant colonies per plate (+S9) TA102 [4]: 1409.8±78.2
Revertant colonies per plate (+S9) TA1535 [5, 7]: 1182.9±81.6
Revertant colonies per plate (+S9) TA1537 [1, 7]: 1282.8±109

N.N.[Cl][Pt][Cl] [cisplatin, reference compound]
Relative mean body weight (day 0 = 100%) (C57BL/6 mice): 76.0 ± 4.7%

CO[C@@]12[C@H](COC(N)=O)C3=C(C(=O)C(C)=C(N)C3=O)N1C[C@@H]1N[C@@H]12 [Mitomycin C, reference compound]
Aberrant cell (%) With gap [6, 8]: 7.67±1.15 %
Number of cells with structural aberrations (%) B: chromosome break [6, 8]: 0.00±0.00%
Number of cells with structural aberrations (%) G: chromosome gap [6, 8]: 0.00±0.00%
Number of cells with structural aberrations (%) e: exchange [6, 8]: 2.00±1.00 %
Aberrant cell (%) With gap [6, 9]: 10.00±1.73 %
Number of cells with structural aberrations (%) B: chromosome break [6, 9]: 0.00±0.00%
Number of cells with structural aberrations (%) G: chromosome gap [6, 9]: 0.00±0.00%
Number of cells with structural aberrations (%) e: exchange [6, 9]: 4.33±2.52 %

O=P1(N(CCCl)CCCl)NCCCO1 (stereo not drawn) [Cyclophosphamide, reference compound]
Reticuloctes(%) (male ICR mice; Day 1): 1.60±0.12 %
Reticuloctes(%) (male ICR mice; Day 2): 0.93±0.07 %
Reticuloctes(%) (male ICR mice; Day 3): 1.07±0.16 %

[N-]=[N+]=[N-].[Na+] [Sodium Azide, reference compound]
Revertant colonies per plate (-S9) TA100 [3, 10]: 1433.6±94.4
Revertant colonies per plate (-S9) TA1535 [5, 10]: 1506.7±62.3

lipopolysaccharide [LPS, reference compound]
ERK phosphorylation compared to the control (IEC-6 cells): 1.8 ± 0.3 fold
